Structures can show the parent of a compound that is named as a salt.
Columns and labels:
[1] = Intrinsic dissolution rate (USP 23 section 711, apparatus 2, compressed pellets in water); format: physicochemical; details: 900 mL water, 37° C., 100 rpm, pellet with exposed surface area 0.5 cm^2, UV 220 nm
Experimental: The intrinsic dissolution rates of Form II and the crystalline polymorph of the present invention were determined as follows. Pellets of venlafaxine hydrochloride were prepared by compressing 100 mg of each material in a die (Wood's apparatus) at 1000 psi for 1 minute with a Carver press. […] The dissolution rate in 900 mL of water was determined by USP 23 (1995), section 711, page 1791 (Dissolution, apparatus 2), with a rotation speed of 100 rpm at 37° C. The dissolution media was circulated through a 1.0 cm path microflow cell at a flow rate of 10 mL/minute. Ultraviolet absorbance was recorded at 220 nm.

[2] = Thermogravimetric analysis (TGA); format: physicochemical; details: heated from 28 to 238° C. at 10° C./minute under nitrogen purge
Experimental: A sample of the venlafaxine hydrochloride crystalline polymorph of the present invention was heated from 28 to 238° C. at a scan rate of 10° C./minute in a Pyris I TGA, available from Perkin-Elmer of Shelton, Conn., under a nitrogen purge.

monoamine oxidase = details: cited from earlier work
muscaranic receptors = details: in vitro; cited from earlier work
adrenergic receptors = details: in vitro; cited from earlier work
histaminergic receptors = details: in vitro; cited from earlier work

COc1ccc(C(CN(C)C)C2(O)CCCCC2)cc1 (stereo not drawn) [Form II, venlafaxine hydrochloride]
intrinsic dissolution rate [1]: 24.7 mg/cm^2-minute

COc1ccc(C(CN(C)C)C2(O)CCCCC2)cc1 (stereo not drawn) [venlafaxine hydrochloride]
weight loss on heating (TGA) [2]: lost little weight until it was heated near the melting point

COc1ccc(C(CN(C)C)C2(O)CCCCC2)cc1 (stereo not drawn) [venlafaxine, 1-[2-(dimethylamino)-1-(4-methoxyphenyl)ethyl]cyclohexanol]
inhibitory activity on monoamine oxidase (monoamine oxidase): no inhibitory activity | affinity for muscaranic receptors (muscaranic receptors): virtually no affinity | affinity for adrenergic receptors (adrenergic receptors): virtually no affinity | affinity for histaminergic receptors (histaminergic receptors): virtually no affinity
